US20240173339A1, “CANNABINOID FORMULATION FOR MANAGEMENT OF DEPRESSION, ANXIETY AND PTSD, AND CANNABINOID FORMULATION AS A SLEEP AID” (Zyus Life Sciences Inc., priority 2021, published 2024)
pKi: −log10 of the molar value. Where “and” joins values, the source holds several entries; their conditions need not be identical. Equal entries are not always repeated. Where two headings read alike, the source gives them in different places.

What was measured:
CRS mice [1] = assay: Elevated Plus Maze (EPM) in chronic restraint stress mouse model; format: in vivo, BALB/c mice; settings: i.p., CBD 10 mg/kg, CBC 20 mg/kg, or both
Experimental: (§1) D0-D14: Development of Depression Model by Chronic Restraint Stimulation (CRS) 1 hour per day.
(§2) D15: Treatment of Control and CRS mice (i.p injection of Cannabinoids or Vehicle).
D16: Elevated plus maze test (EPM) (Replicate 1).
D17: Elevated plus maze test (EPM) (Replicate 2).
(§3) Mouse Species. Adult male BALB/c mice were purchased from Charles River Laboratories.
(§4) Distress Model. Adult male BALB/c mice weighing 20-30 g were used for these experiments. Total 160 animals=10 animals/group×8 treatment groups×2 replicates. The mice groups were as following: • 1. Stress Group: Chronic Restraint Stimulation (CRS): N=80 mice • 2. Control Group: No distress […] CRS: N=80 mice
(§5) Group 2—Treatment with CBD (10 mg/kg)
(§6) Group 3—Treatment with CBC (20 mg/kg)
(§7) Group 4—Co-Treatment CBD (10 mg/kg)+CBC (20 mg/kg)
(§8) • Forced Swim Test (FST) • Elevated Plus Maze (EPM) • Open-Field Test (OFT) • Tail Suspension Test (TST)

rats = settings: cited from earlier work
CRS mice [2] = assay: Forced Swim Test (FST) in CRS mice; format: in vivo, BALB/c mice; settings: CBC 20 mg/kg; for anti-depressive effect (reduction of immobility time and greater movement distance in FST): CBD 10 mg/kg, CBD+CBC 10 and 20 mg/kg
Experimental: as §1, §2
D19: Forced swim test (FST).
as §3, §4, §5, §6, §7, §8

[3] = cited from earlier work
[4] = in vivo; cited from earlier work
rodents [5] = settings: cited from earlier work
rodents [6] = settings: in vivo; cited from earlier work
CB2 receptors = CB2 receptors (Homo sapiens, UniProt P34972); settings: read-out: affinity (Ki) for CB2 receptors; cited from earlier work
Sequence of CB2 receptors (P34972 whole entry): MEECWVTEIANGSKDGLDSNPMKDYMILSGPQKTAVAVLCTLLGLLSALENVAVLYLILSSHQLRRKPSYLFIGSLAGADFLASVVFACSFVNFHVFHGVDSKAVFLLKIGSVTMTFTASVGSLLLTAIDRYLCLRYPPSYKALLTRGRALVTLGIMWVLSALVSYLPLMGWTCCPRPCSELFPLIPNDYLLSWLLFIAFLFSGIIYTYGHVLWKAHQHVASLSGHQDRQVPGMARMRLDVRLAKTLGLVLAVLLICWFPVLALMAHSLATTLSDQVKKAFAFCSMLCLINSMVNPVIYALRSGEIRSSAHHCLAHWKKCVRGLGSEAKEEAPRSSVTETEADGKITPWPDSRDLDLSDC

CB1 receptors = CB1 receptors (Homo sapiens, UniProt P21554); settings: cited from earlier work
Sequence of CB1 receptors (P21554 whole entry): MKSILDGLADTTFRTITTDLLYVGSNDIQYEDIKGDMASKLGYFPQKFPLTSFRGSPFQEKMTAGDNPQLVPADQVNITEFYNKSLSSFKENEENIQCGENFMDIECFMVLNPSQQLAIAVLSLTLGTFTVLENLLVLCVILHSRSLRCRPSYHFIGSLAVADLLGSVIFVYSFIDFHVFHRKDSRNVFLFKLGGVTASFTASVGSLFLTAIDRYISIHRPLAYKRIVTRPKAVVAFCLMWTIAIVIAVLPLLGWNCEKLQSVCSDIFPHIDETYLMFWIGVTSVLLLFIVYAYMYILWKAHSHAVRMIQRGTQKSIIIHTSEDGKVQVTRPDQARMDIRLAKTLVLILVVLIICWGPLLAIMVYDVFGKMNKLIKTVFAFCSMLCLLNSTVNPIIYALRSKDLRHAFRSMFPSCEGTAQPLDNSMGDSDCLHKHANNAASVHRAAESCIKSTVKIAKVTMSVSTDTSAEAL

Row | SMILES | mobility in Elevated Plus Maze (EPM) (CRS mice [1]) | dose showing anti-inflammatory and immunomodulatory effects (rats) | anti-depressive effect (reduction of immobility time and greater movement distance in FST) (CRS mice [2]) | anti-anxiety effect ([3]; high dose (100 mg/kg)) | anti-anxiety effect ([3]; low dose (10 mg/kg)) | dose causing decreased locomotor activity [4] | change on TST (rodents [5]; at any dose) | FST immobility compared to Vehicle (CRS mice [2]; CBD+CBC 10+20 mg/kg) | dose with significant antidepressant effect on FST (rodents [6]) | pKi (CB2 receptors) | concentration at which it binds to CB1 receptors (CB1 receptors) | dose with significant antidepressant effect on TST (rodents [5]; in vivo)
1 | C=C(C)[C@@H]1CCC(C)=C[C@H]1c1c(O)cc(CCCCC)cc1O [CBD, cannabidiol, reference compound] | significantly higher mobility | 5 to 20 mg/kg | significant anti-depressive effect | failed | effective | 200 mg/kg | did not cause a significant change |  |  |  |  | 
2 | CCCCCc1cc(O)c2c(c1)OC(C)(CCC=C(C)C)C=C2 (stereo not drawn) [CBC, cannabichromene] | significantly higher mobility |  | significant anti-depressive effect |  |  | 80 mg/kg and 100 mg/kg |  | marked reduction of immobility | 20 mg/kg | ~7.00 | higher than 1 micromolar | 40 mg/kg and 80 mg/kg
